Data set [1] is described as follows: Gentamicin release study, parallel release reactions in PBS buffer. As to conditions: FIG. 2A; 6.0 mg solid in 1.50 mL PBS, 37° C., pH 7.4. The class given is physicochemical. Here is the method: Gentamicin and vancomycin loading and release are presented for a homopolymer system where the antibiotic gentamicin or vancomycin is bound to hydroxyapatite (HA) using commercially available poly-L-glutamate. This corresponds to the schematic illustrated in FIG. 1A. The experiment consisted of producing gentamicin or vancomycin adsorbed on poly-L-glutamate coated hydroxyapatite, and measuring the drug's rate of release into phosphate-buffered saline at 20° C. or 37° C. and pH 7.4, relative to a drug/hydroxyapatite control without the polymer. Gentamicin release study—Parallel release reactions: Gentamicin release rates from the experimental sample (G/pgHA) and control (G/HA) were measured by running multiple release reactions of each in parallel and stopping the reactions at different times. In each release sample 6.0 mg of solid was mixed in 1.50 mL of PBS buffer in an Eppendorf tube in a 37° C. shaker bath. Samples were removed from the bath at 15 minute intervals, centrifuged for 30 seconds, and the supernatant saved for later analysis.

The next data set concerns staphylococci. As to conditions: literature value (de Neeling et al., 1998); cited from earlier work.

As to gentamicin, in data set [1], the “time for adsorbed gentamicin to reach equilibrium with the buffer” value is listed as “within one hour”. In the data set with staphylococci, the “minimum inhibitory concentration required to kill staphylococci” value is 4 µg/mL.
